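In this assay, cells in 96-well plates receive the compound at five concentrations for 48 hours. Endpoints are linearly interpolated between the surrounding concentrations. TGI: total growth inhibition.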 Where only a bound is given, the exact number is not on record here.

The record followed here is PubChem BioAssay (NCI).

Holding throughout (test): inhibition of tumour cell growth, NCI panel, 48 h
For test [1], the system named is 786-0 renal.
For test [2], the system named is A549 NSCLC.
Test [3] relates to COLO 205 colon.
In test [4] the test system is EKVX NSCLC.
Test [5] relates to HCT-116 colon.
The test system of test [6] is IGROV1 ovarian.
Test [7] relates to MDA-MB-231 breast.
For test [8], the system named is MDA-MB-435.
The test system of test [9] is NCI-H460 lung.
The subject of test [10] is NCI/ADR-RES ovarian.
Test [11] has as its system OVCAR-4 ovarian.
In test [12] the test system is RPMI-8226 leukemia.
Test [13] relates to SF-268 CNS.
The test system of test [14] is SF-295 CNS.
Test [15] concerns SK-MEL-2 melanoma.
Test [16] has as its system SK-OV-3 ovarian.
Test [17] relates to SN12C renal.
Test [18] has as its system TK-10 renal.
The test system of test [19] is UO-31 renal.
Test [20] has as its system A498 renal.

As for `O=C(/C=C/c1ccccc1)Oc1ccc(C(=O)/C=C/c2ccccc2)cc1`, the TGI in test [1] was 13.7 µM; in test [2] it was more than 89.1 µM; in test [3], 21 µM; in test [4] it was 22 µM; in test [5], 14.6 µM; in test [6], 17.9 µM. The TGI was determined as 23 µM in [7]; 18.8 µM in test [8]; 18.8 µM in [9]; 21.9 µM in test [10]; 55.5 µM in test [11]; 15.4 µM in test [12]. Also, the TGI in test [13] is 18.3 µM; in test [14], 24.4 µM; in test [15], more than 66.1 µM; in test [16], more than 31.6 µM; in test [17], 15.2 µM; in test [18] it was 20.8 µM. The molecule further gave a TGI in [19] of 15.3 µM.

Consider `Clc1ccc(-c2nnc3sc4nc5ccccc5c-4nn23)c(Cl)c1`, for which the TGI in test [1], in test [20], in test [2], in test [3], in [4] and in test [5] was more than 100 µM throughout. For the same molecule, the TGI in [7], in [8], in [9], in [10], in test [11] and in test [13] was more than 100 µM throughout. The TGI in test [14] was more than 100 µM; in test [15], 82.2 µM; in test [16] it was more than 100 µM; in [17], more than 100 µM; in [18] it was more than 100 µM; in test [19], more than 100 µM.

`COc1cc2c(cc1OC)C1C3CCCCC3CCN1CC2` (configuration not stated): the TGI in test [1], in test [20], in test [2], in test [3], in test [4] and in test [5] was more than 100 µM throughout. For the same molecule, the TGI in [6], in test [7], in test [8], in test [9], in test [10] and in test [11] was more than 100 µM throughout. Moreover, the TGI in [13], in [14], in [15], in test [16], in test [17] and in test [18] was more than 100 µM each time.

As for `O=C1NC(N2CCOCC2)=N/C1=C\c1ccco1`, the TGI in [1], in [2], in test [3], in test [4], in test [5] and in [6] was more than 100 µM in each case. Besides, the TGI in test [7], in test [8], in test [10], in [11], in [12] and in test [13] was more than 100 µM in each case. In addition, the TGI in test [14], in [15], in test [16], in test [17], in [18] and in test [19] was more than 100 µM in each case.

On to `C[C@H](CCC(=O)O)[C@H]1CC[C@H]2[C@@H]3C(=O)C[C@@H]4C[C@H](O)CC[C@]4(C)[C@H]3C[C@H](O)[C@]12C`, for which the TGI in test [1], in [20], in [2], in test [3], in [4] and in test [5] was more than 100 µM in each case. Also, the TGI in test [6], in test [7], in [8], in [9], in [10] and in test [11] was more than 100 µM each time. The TGI in test [12], in test [13], in test [15], in [17], in test [18] and in [19] was more than 100 µM each time.

On to `O=C1c2ccccc2C(=O)N1n1c(Cc2ccc([N+](=O)[O-])cc2)n[nH]c1=O`, for which the TGI in test [1], in test [20], in test [2], in test [5], in test [6] and in test [7] was more than 100 µM throughout. In addition, the TGI in test [8], in test [9], in test [10], in test [12], in test [13] and in test [14] was more than 100 µM in each case. Besides, the TGI in test [15], in test [17], in test [18] and in test [19] was more than 100 µM each time.

Regarding `CCN1CN(c2ccccc2)C2(CCN(CC3COc4ccccc4O3)CC2)C1=O` (configuration not stated), the TGI was more than 100 µM in [1]; 72.5 µM in test [20]; more than 100 µM in test [2]; 31.5 µM in [3]; 43.7 µM in test [5]; more than 100 µM in test [6]. Also, the TGI was 4.78 µM in [7]; 67.2 µM in test [8]; 45.4 µM in test [9]; more than 100 µM in [10]; 57.9 µM in test [12]; more than 100 µM in test [13]. The TGI in test [14] was more than 100 µM; in test [15], 30.7 µM; in test [16], more than 100 µM; in test [17] it was more than 100 µM; in test [18], more than 100 µM; in test [19], 76.6 µM.

For the molecule `C=CCn1c(=O)c(C(=O)Nc2nc(C34CC5CC(CC(C5)C3)C4)cs2)c(O)c2ccccc21`, the TGI in [1] is more than 100 µM; in [20], more than 100 µM; in test [2] it was 45.1 µM; in test [3], more than 100 µM; in test [4] it was more than 100 µM; in test [5], more than 100 µM. Further, the TGI was more than 100 µM in [6]; more than 100 µM in test [7]; more than 100 µM in [8]; more than 100 µM in [9]; 76.6 µM in test [10]; more than 100 µM in test [11]. Moreover, the TGI was 87.5 µM in [12]; 40.7 µM in [14]; more than 100 µM in [17]; more than 100 µM in test [18]; more than 100 µM in test [19].
